Test results: ChEMBL document CHEMBL3991601, “The target landscape of clinical kinase drugs” (Science, 2017)
pKd: −log10 of the molar value. The source made the active and inactive calls.

How the values were obtained:
[1] = target: T1, Bifunctional phosphoribosylaminoimidazole carboxylase/phosphoribosylaminoimidazole succinocarboxamide synthetase (Homo sapiens, UniProt P22234)
T1 sequence (P22234 whole entry): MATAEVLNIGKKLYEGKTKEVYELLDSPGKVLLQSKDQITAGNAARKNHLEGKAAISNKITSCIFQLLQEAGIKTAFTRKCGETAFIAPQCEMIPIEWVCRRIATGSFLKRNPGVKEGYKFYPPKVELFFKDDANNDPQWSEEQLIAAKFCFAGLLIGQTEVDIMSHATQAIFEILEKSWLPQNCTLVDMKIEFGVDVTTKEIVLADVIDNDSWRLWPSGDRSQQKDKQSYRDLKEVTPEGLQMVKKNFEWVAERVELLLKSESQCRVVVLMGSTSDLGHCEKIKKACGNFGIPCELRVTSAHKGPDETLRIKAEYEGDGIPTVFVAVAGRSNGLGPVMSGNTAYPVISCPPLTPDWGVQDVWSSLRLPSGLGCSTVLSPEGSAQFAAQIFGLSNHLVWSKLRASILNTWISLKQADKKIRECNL

[2] = target: T2, Dual specificity mitogen-activated protein kinase kinase 3 (Homo sapiens, UniProt P46734)
T2 sequence (P46734 whole entry): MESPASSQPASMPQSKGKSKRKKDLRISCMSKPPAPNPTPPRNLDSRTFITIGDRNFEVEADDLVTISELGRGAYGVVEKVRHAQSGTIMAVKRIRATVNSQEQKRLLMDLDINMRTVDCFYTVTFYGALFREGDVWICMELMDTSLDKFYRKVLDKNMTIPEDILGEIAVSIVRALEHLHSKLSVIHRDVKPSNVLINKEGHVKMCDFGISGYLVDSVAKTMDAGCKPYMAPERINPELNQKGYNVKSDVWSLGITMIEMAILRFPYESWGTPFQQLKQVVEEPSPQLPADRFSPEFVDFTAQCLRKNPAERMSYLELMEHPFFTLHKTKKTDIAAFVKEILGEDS

[3] = target: Mitogen-activated protein kinase 10 (Homo sapiens, UniProt P53779)
[4] = target: T3, Cytochrome c1, heme protein, mitochondrial (Homo sapiens, UniProt P08574)
T3 sequence (P08574 whole entry): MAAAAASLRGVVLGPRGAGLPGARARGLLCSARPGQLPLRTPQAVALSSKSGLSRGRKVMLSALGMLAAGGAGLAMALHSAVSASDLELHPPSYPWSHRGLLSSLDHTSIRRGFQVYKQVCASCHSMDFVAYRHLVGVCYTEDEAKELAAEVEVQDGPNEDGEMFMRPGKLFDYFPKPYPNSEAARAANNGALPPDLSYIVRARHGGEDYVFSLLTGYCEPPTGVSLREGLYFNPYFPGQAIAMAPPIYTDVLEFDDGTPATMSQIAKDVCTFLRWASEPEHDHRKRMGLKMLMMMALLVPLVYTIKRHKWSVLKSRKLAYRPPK

[5] = target: T4, Interleukin-1 receptor-associated kinase 4 (Homo sapiens, UniProt Q9NWZ3)
T4 sequence (Q9NWZ3 whole entry): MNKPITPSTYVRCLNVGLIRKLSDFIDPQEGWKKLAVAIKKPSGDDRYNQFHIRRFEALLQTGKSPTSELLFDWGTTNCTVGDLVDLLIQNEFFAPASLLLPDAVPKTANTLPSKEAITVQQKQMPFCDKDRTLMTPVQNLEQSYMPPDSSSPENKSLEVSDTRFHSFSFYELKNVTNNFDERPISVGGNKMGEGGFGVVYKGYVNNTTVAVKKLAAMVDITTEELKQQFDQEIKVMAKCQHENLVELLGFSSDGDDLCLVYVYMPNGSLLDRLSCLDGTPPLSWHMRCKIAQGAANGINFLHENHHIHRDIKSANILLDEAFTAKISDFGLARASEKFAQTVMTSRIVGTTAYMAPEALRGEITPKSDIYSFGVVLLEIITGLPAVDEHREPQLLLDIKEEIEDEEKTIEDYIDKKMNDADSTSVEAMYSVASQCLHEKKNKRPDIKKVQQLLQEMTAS

[6] = target: Inosine-5'-monophosphate dehydrogenase 2 (Homo sapiens, UniProt P12268)
ADP/ATP translocase 3 = target: T5, ADP/ATP translocase 3 (Homo sapiens, UniProt P12236)
T5 sequence (P12236 whole entry): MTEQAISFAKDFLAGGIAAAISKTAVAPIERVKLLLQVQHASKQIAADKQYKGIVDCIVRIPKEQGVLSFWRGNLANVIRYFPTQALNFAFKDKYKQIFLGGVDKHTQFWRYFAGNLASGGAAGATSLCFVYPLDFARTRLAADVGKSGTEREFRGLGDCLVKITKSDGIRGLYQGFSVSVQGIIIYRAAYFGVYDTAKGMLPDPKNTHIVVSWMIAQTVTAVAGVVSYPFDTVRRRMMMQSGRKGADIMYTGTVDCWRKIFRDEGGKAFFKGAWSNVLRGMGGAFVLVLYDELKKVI
Note: in the data inactive means no Kd found up to 30 µM.

Mitogen-activated protein kinase 10, sequence (P53779 whole entry): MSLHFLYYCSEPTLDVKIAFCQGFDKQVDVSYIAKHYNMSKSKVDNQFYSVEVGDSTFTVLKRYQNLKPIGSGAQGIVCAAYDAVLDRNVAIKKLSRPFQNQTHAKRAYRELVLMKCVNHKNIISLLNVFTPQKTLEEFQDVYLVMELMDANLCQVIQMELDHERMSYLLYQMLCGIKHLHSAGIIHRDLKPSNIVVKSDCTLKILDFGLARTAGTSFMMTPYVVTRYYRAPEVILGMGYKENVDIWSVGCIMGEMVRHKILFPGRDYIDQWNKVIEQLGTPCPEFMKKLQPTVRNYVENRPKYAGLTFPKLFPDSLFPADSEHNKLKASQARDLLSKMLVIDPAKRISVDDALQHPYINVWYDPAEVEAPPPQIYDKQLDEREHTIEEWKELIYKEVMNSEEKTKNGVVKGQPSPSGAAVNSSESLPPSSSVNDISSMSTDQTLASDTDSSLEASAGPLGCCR

Kd [1]	Kd [2]	Kd [3]	Kd [4]	Kd [5]	Kd [6]	Kd (ADP/ATP translocase 3)	SMILES	pKd [3]
> 30 µM (inactive)	> 30 µM (inactive)	> 30 µM (inactive)	> 30 µM (inactive)	> 30 µM (inactive)	> 30 µM (inactive)	> 30 µM (inactive)	C[C@@H](c1ccc2nccn2c1)n1nnc2ncc(-c3cnn(C)c3)nc21 [SAVOLITINIB]	–
> 30 µM (inactive)	> 30 µM (inactive)	> 30 µM (inactive)	> 30 µM (inactive)	> 30 µM (inactive)	> 30 µM (inactive)	> 30 µM (inactive)	Cc1cc([C@@H](C)Nc2ccccc2C(=O)O)c2nc(N3CCOCC3)cc(=O)n2c1 [AZD-6482]	–
> 30 µM (inactive)	> 30 µM (inactive)	> 30 µM (inactive)	> 30 µM (inactive)	> 30 µM (inactive)	> 30 µM (inactive)	> 30 µM (inactive)	CCn1c(=O)c(-c2cc[nH]n2)cc2c(C)nc(N)nc21 [VOXTALISIB]	–
> 30 µM (inactive)	> 30 µM (inactive)	> 30 µM (inactive)	> 30 µM (inactive)	> 30 µM (inactive)	> 30 µM (inactive)	> 30 µM (inactive)	COc1ccc(-c2ccc3c(N4CCOC[C@@H]4C)nc(N4CCOC[C@@H]4C)nc3n2)cc1CO [AZD-8055]	–

Second part, the compound before the results:

SMILES	Kd [1]	Kd [2]	Kd [3]	Kd [4]	Kd [5]	Kd [6]	Kd (ADP/ATP translocase 3)	pKd [3]
Cc1c(F)cc(C(=O)NC2CC2)cc1-c1ccc(C(=O)NCC(C)(C)C)cn1 [LOSMAPIMOD]	> 30 µM (inactive)	> 30 µM (inactive)	> 30 µM (inactive)	> 30 µM (inactive)	> 30 µM (inactive)	> 30 µM (inactive)	> 30 µM (inactive)	–
CC[C@@H]1C(=O)N(C)c2cnc(Nc3ccc(C(=O)N[C@H]4CC[C@H](N5CCN(CC6CC6)CC5)CC4)cc3OC)nc2N1C(C)C [VOLASERTIB]	> 30 µM (inactive)	> 30 µM (inactive)	> 30 µM (inactive)	> 30 µM (inactive)	> 30 µM (inactive)	> 30 µM (inactive)	> 30 µM (inactive)	–
COCCNCc1ccc(-c2cc3nccc(Oc4ccc(NC(=S)NC(=O)Cc5ccc(F)cc5)cc4F)c3s2)nc1 [GLESATINIB]	> 30 µM (inactive)	> 30 µM (inactive)	> 30 µM (inactive)	> 30 µM (inactive)	> 30 µM (inactive)	> 30 µM (inactive)	> 30 µM (inactive)	–
COC(=O)[C@@]1(O)C[C@H]2O[C@]1(C)n1c3ccccc3c3c4c(c5c6ccccc6n2c5c31)C(=O)NC4 [K-252A]	> 30 µM (inactive)	> 30 µM (inactive)	> 30 µM (inactive)	> 30 µM (inactive)	0.009 µM (active)	> 30 µM (inactive)	> 30 µM (inactive)	–
Cc1ccc(-n2nc(C(C)(C)C)cc2NC(=O)NCc2cc(F)ccc2Oc2ccc3c(cnn3CCO)c2)cc1 [PEXMETINIB]	> 30 µM (inactive)	> 30 µM (inactive)	–	> 30 µM (inactive)	> 30 µM (inactive)	> 30 µM (inactive)	> 30 µM (inactive)	6.71
